# Source: PubChem BioAssay (NCI)
#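 Five compound concentrations were applied to cells in 96-well plates for 48 hours; endpoints were derived by simple linear interpolation of the resulting dose-response curve. GI50 is the concentration that inhibits growth by half. At the TGI there is no net growth.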
# How the values were obtained:
# Test in all cases: NCI-60 cell line screen, 48 h
# 786-0 renal = tested on: 786-0 renal
# A498 renal = tested on: A498 renal
# A549 NSCLC = tested on: A549 NSCLC
# ACHN renal = tested on: ACHN renal
# BT-549 breast = tested on: BT-549 breast
# CAKI-1 renal = tested on: CAKI-1 renal
# CCRF-CEM leukemia = tested on: CCRF-CEM leukemia
# COLO 205 colon = tested on: COLO 205 colon
# DU-145 prostate = tested on: DU-145 prostate
# EKVX NSCLC = tested on: EKVX NSCLC
# HCC-2998 colon = tested on: HCC-2998 colon
# HCT-116 colon = tested on: HCT-116 colon
# HCT-15 colon = tested on: HCT-15 colon
# HL-60(TB) leukemia = tested on: HL-60(TB) leukemia
# HOP-62 NSCLC = tested on: HOP-62 NSCLC
# HOP-92 NSCLC = tested on: HOP-92 NSCLC
# HS 578T breast = tested on: HS 578T breast
# HT29 colon = tested on: HT29 colon
# IGROV1 ovarian = tested on: IGROV1 ovarian
# K-562 leukemia = tested on: K-562 leukemia
# KM12 colon = tested on: KM12 colon
# M14 melanoma = tested on: M14 melanoma
# MALME-3M melanoma = tested on: MALME-3M melanoma
# MCF7 breast = tested on: MCF7 breast
# MDA-MB-231 breast = tested on: MDA-MB-231 breast
# MDA-MB-435 = tested on: MDA-MB-435
# MOLT-4 leukemia = tested on: MOLT-4 leukemia
# NCI-H226 lung = tested on: NCI-H226 lung
# NCI-H460 lung = tested on: NCI-H460 lung
# NCI-H522 lung = tested on: NCI-H522 lung
# NCI/ADR-RES ovarian = tested on: NCI/ADR-RES ovarian
# OVCAR-3 ovarian = tested on: OVCAR-3 ovarian
# OVCAR-4 ovarian = tested on: OVCAR-4 ovarian
# OVCAR-5 ovarian = tested on: OVCAR-5 ovarian
# OVCAR-8 ovarian = tested on: OVCAR-8 ovarian
# PC-3 prostate = tested on: PC-3 prostate
# RPMI-8226 leukemia = tested on: RPMI-8226 leukemia
# RXF 393 renal = tested on: RXF 393 renal
# SF-268 CNS = tested on: SF-268 CNS
# SF-295 CNS = tested on: SF-295 CNS
# SF-539 CNS = tested on: SF-539 CNS
# SK-MEL-2 melanoma = tested on: SK-MEL-2 melanoma
# SK-MEL-28 melanoma = tested on: SK-MEL-28 melanoma
# SK-MEL-5 melanoma = tested on: SK-MEL-5 melanoma
# SK-OV-3 ovarian = tested on: SK-OV-3 ovarian
# SN12C renal = tested on: SN12C renal
# SNB-19 CNS = tested on: SNB-19 CNS
# SNB-75 CNS = tested on: SNB-75 CNS
# SW-620 colon = tested on: SW-620 colon
# T-47D breast = tested on: T-47D breast
# TK-10 renal = tested on: TK-10 renal
# U251 CNS = tested on: U251 CNS
# UACC-257 melanoma = tested on: UACC-257 melanoma
# UACC-62 melanoma = tested on: UACC-62 melanoma
# UO-31 renal = tested on: UO-31 renal
smiles,measurement,setting,value
NC(=O)c1cccc(-n2ccc3cc(NC(=O)Nc4ccc(N5CCOCC5)c(C(F)(F)F)c4)ccc32)n1,GI50,786-0 renal,670 nM
same,TGI,786-0 renal,40600 nM
same,GI50,A498 renal,2010 nM
same,TGI,A498 renal,7320 nM
same,GI50,A549 NSCLC,2640 nM
same,TGI,A549 NSCLC,> 100000 nM
same,GI50,ACHN renal,2700 nM
same,TGI,ACHN renal,8590 nM
same,GI50,BT-549 breast,1790 nM
same,TGI,BT-549 breast,5040 nM
same,GI50,CAKI-1 renal,1900 nM
same,TGI,CAKI-1 renal,9410 nM
same,GI50,CCRF-CEM leukemia,741 nM
same,TGI,CCRF-CEM leukemia,4740 nM
same,GI50,COLO 205 colon,2060 nM
same,TGI,COLO 205 colon,5510 nM
same,GI50,DU-145 prostate,3010 nM
same,TGI,DU-145 prostate,> 100000 nM
same,GI50,EKVX NSCLC,2900 nM
same,TGI,EKVX NSCLC,> 100000 nM
same,GI50,HCC-2998 colon,3150 nM
same,GI50,HCT-116 colon,1910 nM
same,TGI,HCT-116 colon,8570 nM
same,GI50,HCT-15 colon,1590 nM
same,TGI,HCT-15 colon,6610 nM
same,GI50,HL-60(TB) leukemia,2050 nM
same,TGI,HL-60(TB) leukemia,7500 nM
same,GI50,HOP-62 NSCLC,1500 nM
same,TGI,HOP-62 NSCLC,4100 nM
same,GI50,HOP-92 NSCLC,2100 nM
same,TGI,HOP-92 NSCLC,4820 nM
same,GI50,HS 578T breast,835 nM
same,TGI,HS 578T breast,4830 nM
same,GI50,HT29 colon,2340 nM
same,TGI,HT29 colon,> 100000 nM
same,GI50,IGROV1 ovarian,2250 nM
same,TGI,IGROV1 ovarian,6940 nM
same,GI50,K-562 leukemia,946 nM
same,TGI,K-562 leukemia,> 100000 nM
same,GI50,KM12 colon,397 nM
same,TGI,KM12 colon,4410 nM
same,GI50,M14 melanoma,2250 nM
same,TGI,M14 melanoma,6910 nM
same,GI50,MALME-3M melanoma,1590 nM
same,TGI,MALME-3M melanoma,4340 nM
same,GI50,MCF7 breast,124 nM
same,TGI,MCF7 breast,3160 nM
same,GI50,MDA-MB-231 breast,2560 nM
same,TGI,MDA-MB-231 breast,7960 nM
same,GI50,MDA-MB-435,2030 nM
same,TGI,MDA-MB-435,7190 nM
same,GI50,MOLT-4 leukemia,1650 nM
same,TGI,MOLT-4 leukemia,9010 nM
same,GI50,NCI-H226 lung,1740 nM
same,TGI,NCI-H226 lung,6600 nM
same,GI50,NCI-H460 lung,2220 nM
same,TGI,NCI-H460 lung,6510 nM
same,GI50,NCI-H522 lung,2070 nM
same,TGI,NCI-H522 lung,7820 nM
same,GI50,NCI/ADR-RES ovarian,2650 nM
same,TGI,NCI/ADR-RES ovarian,35400 nM
same,GI50,OVCAR-3 ovarian,1990 nM
same,TGI,OVCAR-3 ovarian,5370 nM
same,GI50,OVCAR-4 ovarian,2250 nM
same,TGI,OVCAR-4 ovarian,7090 nM
same,GI50,OVCAR-5 ovarian,2950 nM
same,TGI,OVCAR-5 ovarian,> 100000 nM
same,GI50,OVCAR-8 ovarian,1480 nM
same,TGI,OVCAR-8 ovarian,8380 nM
same,GI50,PC-3 prostate,1670 nM
same,TGI,PC-3 prostate,6200 nM
same,GI50,RPMI-8226 leukemia,505 nM
same,TGI,RPMI-8226 leukemia,2290 nM
same,GI50,RXF 393 renal,245 nM
same,TGI,RXF 393 renal,743 nM
same,GI50,SF-268 CNS,2670 nM
same,TGI,SF-268 CNS,8940 nM
same,GI50,SF-295 CNS,419 nM
same,TGI,SF-295 CNS,2310 nM
same,GI50,SF-539 CNS,616 nM
same,TGI,SF-539 CNS,2790 nM
same,GI50,SK-MEL-2 melanoma,2110 nM
same,TGI,SK-MEL-2 melanoma,5090 nM
same,GI50,SK-MEL-28 melanoma,2040 nM
same,TGI,SK-MEL-28 melanoma,8830 nM
same,GI50,SK-MEL-5 melanoma,1510 nM
same,TGI,SK-MEL-5 melanoma,3470 nM
same,GI50,SK-OV-3 ovarian,2730 nM
same,TGI,SK-OV-3 ovarian,8950 nM
same,GI50,SN12C renal,2190 nM
same,TGI,SN12C renal,7360 nM
same,GI50,SNB-19 CNS,1860 nM
same,TGI,SNB-19 CNS,6550 nM
same,GI50,SNB-75 CNS,690 nM
same,TGI,SNB-75 CNS,4010 nM
same,GI50,SW-620 colon,2870 nM
same,TGI,SW-620 colon,> 100000 nM
same,GI50,T-47D breast,463 nM
same,TGI,T-47D breast,3020 nM
same,GI50,TK-10 renal,2750 nM
same,TGI,TK-10 renal,8290 nM
same,GI50,U251 CNS,1250 nM
same,TGI,U251 CNS,12100 nM
same,GI50,UACC-257 melanoma,2900 nM
same,TGI,UACC-257 melanoma,9040 nM
same,GI50,UACC-62 melanoma,1650 nM
same,TGI,UACC-62 melanoma,4140 nM
same,GI50,UO-31 renal,1840 nM
same,TGI,UO-31 renal,5210 nM
